Values quoted from earlier work as cited in patent publication US20240335414A1, “SPECIALIZED COMBINATIONS FOR MENTAL DISORDERS OR MENTAL ENHANCEMENT” (TACTOGEN INC, priority 2021, published 2024).

Key:
[1] = biological target: 5-HT1B (Homo sapiens, UniProt P28222)
[2] = test system: neuritogenesis
[3] = pooled Phase 2 clinical trials
[4] = MDMA arm, first of two Phase 3 trials, MDMA-assisted therapy

Chain of 5-HT1B (P28222 whole entry, species assumed): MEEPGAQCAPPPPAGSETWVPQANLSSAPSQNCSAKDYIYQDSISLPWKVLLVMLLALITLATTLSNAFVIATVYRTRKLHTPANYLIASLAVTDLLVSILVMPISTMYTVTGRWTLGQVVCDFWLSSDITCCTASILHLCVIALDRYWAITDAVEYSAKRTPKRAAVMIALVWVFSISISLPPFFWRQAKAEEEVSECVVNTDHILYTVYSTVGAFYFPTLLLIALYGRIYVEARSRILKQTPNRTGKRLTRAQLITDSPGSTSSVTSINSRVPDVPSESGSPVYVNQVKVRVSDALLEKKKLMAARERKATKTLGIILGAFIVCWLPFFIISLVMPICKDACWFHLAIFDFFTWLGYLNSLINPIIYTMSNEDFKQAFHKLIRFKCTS

## CNC(C)Cc1ccc2c(c1)OCO2 (stereo not drawn) [MDMA, 3,4-methylenedioxymethamphetamine]
[1]
  binding to the 5-HT1B: does not bind
[2]; read-out: EC50 for promoting neuritogenesis
  EC50: 7.41 nM
[2]; relative to ketamine
  Emax for promoting neuritogenesis, compared with ketamine: approximately twice that of ketamine
[3]; 29 of 72 participants
  nausea, proportion of participants: 40.3%
[3]; 52 of 72 participants
  anxiety, proportion of participants: 72.2%
[4]
  participants no longer diagnosable with PTSD: two-thirds
